Assay results taken from publication PMC10989010, “A panel of janus kinase inhibitors identified with anti-inflammatory effects protect mice from lethal influenza virus infection” (Antimicrobial Agents and Chemotherapy, 2024).
pIC50: −log10 of the molar value. Structures can show the parent of a compound that is named as a salt. Where two headings read alike, the source gives them in different places.

Key:
IL-8 = test: U937 cell-based anti-inflammatory assay for influenza virus infection, IL-8 production (AlphaLISA); set-up: species or system human; details: read-out: IC50 IL-8
Procedure: U937 cells were seeded in a 96-well culture plate at a density of 1.5 × 10^5 cells per well and incubated for 24 hours prior to virus infection. Subsequently, the cells in each well were infected with the PR8 virus at a multiplicity of infection of 0.05 and treated with serially diluted drugs or left untreated as a control. The drugs were serially diluted threefold, starting from an initial concentration of 200 µM down to 0.01 µM. […] Following this incubation, the supernatants were collected and subjected to AlphaLISA analysis to determine IL-8, IP-10, and MCP1 protein levels.
The AlphaLISA detection kits employed in this study were IL-8 (PerkinElmer AL224), IP-10 (PerkinElmer AL259), and MCP1 (PerkinElmer, AL244). U937 cell culture supernatants were measured for IL-8, IP-10, and MCP-1 protein levels using AlphaLISA assay as per the manufacturer’s recommendations. The ELISA and AlphaLISA plates were read using the Varioskan LUX multimode microplate reader (Thermo Scientiﬁc, Waltham, MA, USA).

IP-10 = test: cells; type: cell-based, human; details: read-out: IC50 IP-10
MCP1 = test: cells; type: cell-based, human; details: read-out: IC50 MCP1
U937 cells = test: Cytotoxicity assay (CellTiter-Glo); type: cell-based, human; details: U937 cells; CellTiter-Glo; mean of three independent experiments
Procedure: (§1) The compound cytotoxicity was determined by CellTiter-Glo Assay (Promega, Madison, WI, USA). After adding 15 µL of CellTiter-Glo reagent to each well, plates were incubated at room temperature for 15 minutes with shaking. The luminescence intensity was determined by a multimode plate reader (Wallac Envision, PerkinElmer, MA, USA).

[1] = Cytotoxicity assay (CellTiter-Glo); type: cell-based, human; details: human
Procedure: as §1

[2] = U937 cells, CellTiter-Glo, mean of three independent experiments, read-out: CC50

With `Cc1cc(Nc2nc(N[C@@H](C)c3ccc(F)cc3)c(C#N)cc2F)n[nH]1` [AZ 960] the pIC50 (IL-8; Homo sapiens, U-937, 72 h) was > 8.30, the pIC50 (IP-10; Homo sapiens, U-937, 72 h) was 8.00 and the pIC50 (MCP1; Homo sapiens, U-937, 72 h) was > 8.30. The CC50 (U937 cells) was 6000 nM.

`Cc1cc(Nc2nc(N[C@@H](C)c3ncc(F)cn3)ncc2Cl)n[nH]1` [AZD1480] showed a pIC50 (IL-8; Homo sapiens, U-937, 72 h) of 5.96, a pIC50 (IP-10; Homo sapiens, U-937, 72 h) of 6.00 and a pIC50 (MCP1; Homo sapiens, U-937, 72 h) of 6.52. The CC50 [1, 2] was 13500 nM.

In the case of `CCS(=O)(=O)N1CC(CC#N)(n2cc(-c3ncnc4[nH]ccc34)cn2)C1` [Baricitinib], the CC50 (U937 cells) was > 100000 nM.

`CN1CCN(c2cccc(Nc3nc4c(-c5ccc(S(C)(=O)=O)cc5)cccn4n3)c2)CC1` [CEP-33779] showed a pIC50 (IL-8; U937 cells infected with PR8 virus, 72 hours, Alphalisa, mean of three independent experiments) of 6.44, a pIC50 (IP-10) of 6.66 and a pIC50 (MCP1) of 6.62. For the same compound, the CC50 (U937 cells) was 10500 nM.

With `CCS(=O)(=O)N1CCN(c2ccc(Nc3ncc(C(N)=O)c(NC4CC4)n3)cc2)CC1` [Cerdulatinib hydrochloride] the pIC50 (IL-8; Homo sapiens, U-937, 72 h) was > 8.30, the pIC50 (IP-10; Homo sapiens, U-937, 72 h) was 7.30 and the pIC50 (MCP1; Homo sapiens, U-937, 72 h) was 7.70. For the same compound, the CC50 (U937 cells) was 3500 nM.

Work on `CC[C@@](C)(Nc1ccnc(-c2c[nH]c3ncccc23)n1)C(=O)NCC(F)(F)F` [Decernotinib] yielded a pIC50 (IP-10; Homo sapiens, U-937, 72 h) of 7.00, a pIC50 (MCP1; Homo sapiens, U-937, 72 h) of 7.30 and a CC50 (U937 cells) of 50000 nM.

With `Cc1cc(Nc2cc(CN3CCOCC3)c3nc(C)c(Cc4ccc(Cl)cc4F)n3n2)n[nH]1` [Gandotinib] the pIC50 (IL-8; Homo sapiens, U-937, 72 h) was > 8.30, the pIC50 (IP-10; Homo sapiens, U-937, 72 h) was 8.00 and the pIC50 (MCP1; Homo sapiens, U-937, 72 h) was > 8.30. It also gave a CC50 (U937 cells) of 26000 nM.

`N#CCNC(=O)c1ccc(-c2ccnc(Nc3ccc(N4CCOCC4)cc3)n2)cc1` [Momelotinib] showed a pIC50 (IL-8; Homo sapiens, U-937, 72 h) of 6.52, a pIC50 (IP-10; Homo sapiens, U-937, 72 h) of 6.32 and a pIC50 (MCP1; Homo sapiens, U-937, 72 h) of 7.52. It also gave a CC50 (U937 cells) of 5400 nM.

With `NC(=O)c1cnc2[nH]ccc2c1N[C@@H]1[C@@H]2CC3C[C@H]1C[C@@](O)(C3)C2` [Peficitinib] the pIC50 (IL-8; Homo sapiens, U-937, 72 h) was 8.00, the pIC50 (IP-10; Homo sapiens, U-937, 72 h) was 7.70 and the CC50 [1] was 34700 nM.

Work on `N#CC[C@H](C1CCCC1)n1cc(-c2ncnc3[nH]ccc23)cn1` [Ruxolitinib] yielded a pIC50 (IL-8; Homo sapiens, U-937, 72 h) of 6.92, a pIC50 (IP-10; Homo sapiens, U-937, 72 h) of 7.15 and a pIC50 (MCP1; Homo sapiens, U-937, 72 h) of 7.52. For the same compound, the CC50 (U937 cells) was 100000 nM.

`N#CC[C@@H](C1CCCC1)n1cc(-c2ncnc3[nH]ccc23)cn1` [S-Ruxolitinib] showed a pIC50 (IL-8; Homo sapiens, U-937, 72 h) of 7.52, a pIC50 (IP-10; Homo sapiens, U-937, 72 h) of 7.10 and a pIC50 (MCP1; Homo sapiens, U-937, 72 h) of 7.22. For the same compound, the CC50 [1, 2] was 100000 nM.

For `C[C@@H]1CCN(C(=O)CC#N)C[C@@H]1N(C)c1ncnc2[nH]ccc12` [Tofacitinib citrate], the CC50 [1, 2] was > 100000 nM.

For `C[C@@H]1CCN(C(=O)CC#N)C[C@@H]1N(C)c1ncnc2[nH]ccc12` [Tofacitinib], the CC50 (U937 cells) was > 100000 nM.

Compound `O=C(Nc1ccc(-c2ccnc(Nc3ccc(N4CCOCC4)cc3)n2)cc1)C1CCCN1` (stereo not drawn) [XL019] has a pIC50 (IL-8; Homo sapiens, U-937, 72 h) of 6.29, a pIC50 (IP-10; Homo sapiens, U-937, 72 h) of 6.00 and a pIC50 (MCP1; Homo sapiens, U-937, 72 h) of 6.03. The CC50 (U937 cells) was 26700 nM.
